Assay results reported in patent US11331299B2, “Medicinal use of serrulatane diterpenes” (The University of Sydney, priority 2016, dated 2022).
Read-outs that look alike come from different tables or passages of the source.

What was measured:
[1] = target: receptors (Bioprint panel) (Homo sapiens, UniProt P28335); experiment: biochemical; format: binding; conditions: read-out: Reference Compound IC50
[2] = target: receptors (Bioprint panel) (Homo sapiens, UniProt P41595); experiment: biochemical; format: binding; conditions: read-out: Reference Compound IC50
[3] = target: T1, enzymes (Bioprint panel) (Homo sapiens, UniProt O00408); experiment: biochemical; conditions: PDE2A1 (h); read-out: Reference Compound IC50
T1 construct: other: PDE2A1 (h); 10 μM; PDE2A1 (h)

[4] = target: T2, Sirtuin 6 (h) (Homo sapiens, UniProt Q8N6T7); conditions: reference compound; Fluorogenic HDAC 50 μM; 180 min/RT; cited from earlier work
T2 sequence (Q8N6T7 whole entry): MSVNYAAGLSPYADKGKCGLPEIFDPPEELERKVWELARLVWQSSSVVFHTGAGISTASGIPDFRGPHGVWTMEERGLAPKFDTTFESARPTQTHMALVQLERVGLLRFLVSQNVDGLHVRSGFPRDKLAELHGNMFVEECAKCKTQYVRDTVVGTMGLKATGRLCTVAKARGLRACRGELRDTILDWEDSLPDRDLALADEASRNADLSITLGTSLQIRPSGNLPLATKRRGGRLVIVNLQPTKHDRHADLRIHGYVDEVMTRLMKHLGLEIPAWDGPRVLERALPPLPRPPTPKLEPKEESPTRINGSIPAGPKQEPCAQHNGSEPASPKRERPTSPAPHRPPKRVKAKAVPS

[5] = target: T2, Sirtuin 6 (h); experiment: Epigenetic enzyme assay, Sirtuins; format: biochemical; conditions: Table 10; read-out: Reference IC50
[6] = target: T3, JMJD2B (h) (Homo sapiens, UniProt O94953); experiment: Epigenetic enzyme assay, Demethylases (KDMs); format: biochemical
T3 sequence (O94953 1-1096): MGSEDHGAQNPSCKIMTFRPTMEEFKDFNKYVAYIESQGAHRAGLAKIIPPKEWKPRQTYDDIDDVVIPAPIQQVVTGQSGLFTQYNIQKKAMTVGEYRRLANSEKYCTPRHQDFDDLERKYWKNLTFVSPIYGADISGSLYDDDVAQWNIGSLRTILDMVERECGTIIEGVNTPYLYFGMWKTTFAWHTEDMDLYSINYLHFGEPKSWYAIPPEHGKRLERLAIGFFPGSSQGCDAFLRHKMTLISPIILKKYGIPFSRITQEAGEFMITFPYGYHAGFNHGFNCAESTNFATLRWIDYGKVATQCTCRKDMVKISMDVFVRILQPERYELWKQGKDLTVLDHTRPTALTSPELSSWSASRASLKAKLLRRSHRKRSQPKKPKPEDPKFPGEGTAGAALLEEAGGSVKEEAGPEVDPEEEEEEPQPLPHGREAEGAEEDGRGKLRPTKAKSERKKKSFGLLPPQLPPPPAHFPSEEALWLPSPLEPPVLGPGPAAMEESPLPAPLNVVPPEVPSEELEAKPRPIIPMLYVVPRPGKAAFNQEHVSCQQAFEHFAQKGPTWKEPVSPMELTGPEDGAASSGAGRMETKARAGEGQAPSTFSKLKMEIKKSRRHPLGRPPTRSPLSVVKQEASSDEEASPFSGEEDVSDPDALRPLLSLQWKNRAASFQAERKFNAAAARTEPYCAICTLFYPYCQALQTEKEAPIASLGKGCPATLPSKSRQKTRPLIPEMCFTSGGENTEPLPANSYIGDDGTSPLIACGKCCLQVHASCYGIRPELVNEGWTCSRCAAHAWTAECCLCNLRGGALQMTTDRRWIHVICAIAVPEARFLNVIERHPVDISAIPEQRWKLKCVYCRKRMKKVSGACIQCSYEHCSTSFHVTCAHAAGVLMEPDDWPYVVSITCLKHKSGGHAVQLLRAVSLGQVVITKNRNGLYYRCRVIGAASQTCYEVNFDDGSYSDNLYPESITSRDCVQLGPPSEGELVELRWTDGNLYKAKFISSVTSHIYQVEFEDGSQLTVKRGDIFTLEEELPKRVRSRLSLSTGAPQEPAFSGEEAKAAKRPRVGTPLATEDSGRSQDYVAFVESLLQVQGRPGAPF

[7] = target: T4, JARID1A (h) (Homo sapiens, UniProt P29375); conditions: read-out: Reference IC50; cited from earlier work
T4 sequence (P29375 whole entry): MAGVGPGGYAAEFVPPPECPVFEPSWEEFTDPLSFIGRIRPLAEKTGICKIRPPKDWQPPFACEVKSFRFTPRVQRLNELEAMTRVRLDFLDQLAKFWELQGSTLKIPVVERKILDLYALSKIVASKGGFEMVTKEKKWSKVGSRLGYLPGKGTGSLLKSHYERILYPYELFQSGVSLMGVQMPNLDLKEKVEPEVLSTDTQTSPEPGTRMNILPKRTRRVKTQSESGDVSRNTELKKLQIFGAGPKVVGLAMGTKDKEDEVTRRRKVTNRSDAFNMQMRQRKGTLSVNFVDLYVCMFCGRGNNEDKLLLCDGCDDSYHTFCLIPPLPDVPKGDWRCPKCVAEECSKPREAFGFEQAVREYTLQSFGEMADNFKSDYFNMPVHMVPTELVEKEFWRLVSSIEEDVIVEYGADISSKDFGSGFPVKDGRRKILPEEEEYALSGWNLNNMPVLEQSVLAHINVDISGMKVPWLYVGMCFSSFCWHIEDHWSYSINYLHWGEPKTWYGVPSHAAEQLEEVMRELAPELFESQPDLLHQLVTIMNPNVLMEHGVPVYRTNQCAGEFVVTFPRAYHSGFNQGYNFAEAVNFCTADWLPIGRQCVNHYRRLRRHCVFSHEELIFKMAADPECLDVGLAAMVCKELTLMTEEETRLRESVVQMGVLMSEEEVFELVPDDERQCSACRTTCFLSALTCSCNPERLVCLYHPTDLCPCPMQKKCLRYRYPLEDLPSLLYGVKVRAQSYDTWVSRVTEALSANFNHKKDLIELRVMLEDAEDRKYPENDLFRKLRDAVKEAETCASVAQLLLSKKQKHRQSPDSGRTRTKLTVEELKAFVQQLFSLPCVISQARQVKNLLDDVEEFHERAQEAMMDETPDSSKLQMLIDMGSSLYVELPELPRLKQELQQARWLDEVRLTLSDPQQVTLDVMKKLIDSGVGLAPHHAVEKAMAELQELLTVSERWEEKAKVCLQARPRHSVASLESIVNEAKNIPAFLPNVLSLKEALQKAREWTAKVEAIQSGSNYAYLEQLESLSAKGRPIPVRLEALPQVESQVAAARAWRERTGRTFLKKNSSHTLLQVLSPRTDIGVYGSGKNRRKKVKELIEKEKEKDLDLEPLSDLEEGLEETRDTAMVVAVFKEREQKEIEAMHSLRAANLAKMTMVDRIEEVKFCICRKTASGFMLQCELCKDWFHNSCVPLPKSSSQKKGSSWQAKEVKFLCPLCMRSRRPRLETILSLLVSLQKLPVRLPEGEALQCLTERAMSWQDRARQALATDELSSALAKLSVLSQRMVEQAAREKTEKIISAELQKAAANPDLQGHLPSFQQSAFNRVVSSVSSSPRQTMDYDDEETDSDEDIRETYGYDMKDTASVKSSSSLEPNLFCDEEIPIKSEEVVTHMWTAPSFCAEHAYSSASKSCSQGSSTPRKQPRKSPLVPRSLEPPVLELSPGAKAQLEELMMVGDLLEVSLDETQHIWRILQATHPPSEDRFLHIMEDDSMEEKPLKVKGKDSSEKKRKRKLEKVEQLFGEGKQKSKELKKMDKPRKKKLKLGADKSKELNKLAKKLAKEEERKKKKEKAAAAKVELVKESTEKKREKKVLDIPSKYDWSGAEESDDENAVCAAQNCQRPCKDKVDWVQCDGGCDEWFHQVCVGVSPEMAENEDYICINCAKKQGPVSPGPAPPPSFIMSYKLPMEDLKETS

[8] = target: T5, FBXL10 (h) (Homo sapiens, UniProt Q8NHM5); conditions: read-out: Reference IC50; cited from earlier work
T5 sequence (Q8NHM5 1-1336): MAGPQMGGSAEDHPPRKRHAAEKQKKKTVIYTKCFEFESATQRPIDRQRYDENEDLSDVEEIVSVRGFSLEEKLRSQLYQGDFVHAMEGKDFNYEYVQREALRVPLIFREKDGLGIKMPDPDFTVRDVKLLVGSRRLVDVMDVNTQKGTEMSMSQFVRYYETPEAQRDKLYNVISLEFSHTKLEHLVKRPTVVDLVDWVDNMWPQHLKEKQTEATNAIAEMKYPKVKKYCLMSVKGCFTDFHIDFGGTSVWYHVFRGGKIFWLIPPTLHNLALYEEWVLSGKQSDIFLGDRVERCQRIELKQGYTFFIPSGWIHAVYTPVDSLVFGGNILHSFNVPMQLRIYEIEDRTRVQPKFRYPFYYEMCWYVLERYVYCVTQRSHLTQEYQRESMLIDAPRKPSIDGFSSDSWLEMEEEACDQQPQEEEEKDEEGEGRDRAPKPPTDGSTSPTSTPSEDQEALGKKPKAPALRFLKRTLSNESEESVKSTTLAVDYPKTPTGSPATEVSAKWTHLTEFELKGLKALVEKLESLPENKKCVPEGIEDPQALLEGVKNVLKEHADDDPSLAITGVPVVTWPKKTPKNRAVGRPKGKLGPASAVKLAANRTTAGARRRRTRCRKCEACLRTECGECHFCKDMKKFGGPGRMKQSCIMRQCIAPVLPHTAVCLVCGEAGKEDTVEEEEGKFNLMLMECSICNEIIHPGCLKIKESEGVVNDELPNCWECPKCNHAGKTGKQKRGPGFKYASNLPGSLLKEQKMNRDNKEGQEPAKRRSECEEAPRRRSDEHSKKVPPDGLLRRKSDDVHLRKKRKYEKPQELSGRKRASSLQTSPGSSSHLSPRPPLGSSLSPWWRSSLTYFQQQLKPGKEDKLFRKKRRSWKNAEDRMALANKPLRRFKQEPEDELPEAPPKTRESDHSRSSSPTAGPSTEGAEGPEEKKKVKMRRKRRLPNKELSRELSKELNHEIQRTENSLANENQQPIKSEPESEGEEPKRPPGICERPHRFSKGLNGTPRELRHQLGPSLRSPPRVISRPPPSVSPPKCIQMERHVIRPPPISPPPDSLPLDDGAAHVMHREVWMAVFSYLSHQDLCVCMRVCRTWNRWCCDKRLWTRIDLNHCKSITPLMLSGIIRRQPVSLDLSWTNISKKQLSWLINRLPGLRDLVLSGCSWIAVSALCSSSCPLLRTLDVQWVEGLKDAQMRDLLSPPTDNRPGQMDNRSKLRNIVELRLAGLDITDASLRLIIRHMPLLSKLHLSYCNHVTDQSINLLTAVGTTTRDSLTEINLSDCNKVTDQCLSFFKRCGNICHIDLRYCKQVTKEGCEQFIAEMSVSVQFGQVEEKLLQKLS

[9] = target: T5, FBXL10 (h); experiment: Epigenetic enzyme assay, Demethylases (KDMs); format: biochemical; conditions: read-out: Reference IC50
[10] = target: T4, JARID1A (h); experiment: Epigenetic enzyme assay, Demethylases (KDMs); format: biochemical
[11] = target: T3, JMJD2B (h); conditions: read-out: Reference IC50; cited from earlier work
[12] = target: enzymes (Bioprint panel) (Mus musculus, UniProt P29477); experiment: biochemical; conditions: inducible NOS; read-out: Reference Compound IC50
[13] = target: T6, GCN5L2(h) (Homo sapiens, UniProt Q92830); conditions: reference compound; biotin-H3K27me3 50 nM; 10 min/RT; LANCE; cited from earlier work
T6 sequence (Q92830 whole entry): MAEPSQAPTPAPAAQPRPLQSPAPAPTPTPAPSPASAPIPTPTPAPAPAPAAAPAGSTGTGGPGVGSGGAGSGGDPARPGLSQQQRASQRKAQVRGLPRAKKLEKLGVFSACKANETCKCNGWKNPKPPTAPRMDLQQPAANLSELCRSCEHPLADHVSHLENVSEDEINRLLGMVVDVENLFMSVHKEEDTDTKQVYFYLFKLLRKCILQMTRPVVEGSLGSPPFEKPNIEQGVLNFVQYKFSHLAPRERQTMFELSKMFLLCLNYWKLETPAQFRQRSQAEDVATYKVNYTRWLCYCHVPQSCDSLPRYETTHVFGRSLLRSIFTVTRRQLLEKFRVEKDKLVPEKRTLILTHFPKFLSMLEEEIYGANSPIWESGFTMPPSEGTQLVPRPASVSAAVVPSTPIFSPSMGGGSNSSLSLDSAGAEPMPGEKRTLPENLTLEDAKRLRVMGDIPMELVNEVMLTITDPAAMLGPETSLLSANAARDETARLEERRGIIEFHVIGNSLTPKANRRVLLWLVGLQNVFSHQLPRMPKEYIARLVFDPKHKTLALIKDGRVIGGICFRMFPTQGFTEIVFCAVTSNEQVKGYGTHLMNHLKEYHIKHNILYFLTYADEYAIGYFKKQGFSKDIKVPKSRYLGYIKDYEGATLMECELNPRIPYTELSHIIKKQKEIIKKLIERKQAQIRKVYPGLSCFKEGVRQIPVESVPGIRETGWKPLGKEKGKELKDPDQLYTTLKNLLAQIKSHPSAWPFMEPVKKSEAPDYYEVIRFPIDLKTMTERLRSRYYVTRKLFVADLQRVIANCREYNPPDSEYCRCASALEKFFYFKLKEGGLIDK

[14] = target: T6, GCN5L2(h); experiment: Epigenetic enzyme assay, Histone acetyltransferases (HATs); format: biochemical; conditions: Table 10; read-out: Reference IC50
[15] = target: T7, BRD3(2) (h) bromodomain (Homo sapiens, UniProt Q15059); conditions: ligand biotin-H4 di acetyl Lys 5/8 100 nM; 30 min/RT; AlphaScreen; read-out: Reference IC50; cited from earlier work
T7 construct: Bromodomain
T7 sequence (Q15059 306-415 limits assumed): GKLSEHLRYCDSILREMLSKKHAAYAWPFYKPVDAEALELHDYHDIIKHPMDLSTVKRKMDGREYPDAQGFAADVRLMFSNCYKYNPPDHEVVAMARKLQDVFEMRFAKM

[16] = target: T7, BRD3(2) (h) bromodomain; experiment: Epigenetic binding assay, Bromodomain; conditions: Table 4; read-out: Reference IC50
[17] = target: enzymes (Bioprint panel); experiment: biochemical; conditions: COMT (catechol- O-methyl transferase); read-out: Reference Compound IC50
[18] = target: receptors (Bioprint panel) (Homo sapiens, UniProt P35348); experiment: biochemical; format: binding; conditions: read-out: Reference Compound IC50
[19] = target: CYP2B6 (Bupropion Substrate) (Homo sapiens, UniProt P20813); experiment: Cytochrome P450 Inhibition (CYP panel)
[20] = target: receptors (Bioprint panel) (Homo sapiens, UniProt Q9GZV3); experiment: biochemical; format: binding; conditions: choline transporter (CHT1) (h) (antagonist radioligand); read-out: Reference Compound IC50
receptors (Bioprint panel) (Homo sapiens, UniProt Q9GZV3), sequence (Q9GZV3 whole entry): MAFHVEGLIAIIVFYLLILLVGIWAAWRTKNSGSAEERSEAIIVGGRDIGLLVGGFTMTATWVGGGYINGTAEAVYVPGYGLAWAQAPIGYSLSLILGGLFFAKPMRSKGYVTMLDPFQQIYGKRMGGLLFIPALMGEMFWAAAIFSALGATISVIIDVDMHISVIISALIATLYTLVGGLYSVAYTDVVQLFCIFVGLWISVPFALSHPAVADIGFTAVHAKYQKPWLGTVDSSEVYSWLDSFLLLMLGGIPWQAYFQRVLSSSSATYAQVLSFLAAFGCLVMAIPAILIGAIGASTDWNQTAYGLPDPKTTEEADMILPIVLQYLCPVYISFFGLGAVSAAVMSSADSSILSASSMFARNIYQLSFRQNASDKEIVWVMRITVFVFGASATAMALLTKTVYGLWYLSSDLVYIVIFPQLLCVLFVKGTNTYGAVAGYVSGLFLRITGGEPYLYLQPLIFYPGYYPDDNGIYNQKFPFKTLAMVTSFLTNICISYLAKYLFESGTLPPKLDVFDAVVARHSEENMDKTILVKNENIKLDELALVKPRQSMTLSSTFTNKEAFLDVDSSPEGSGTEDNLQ

[21] = target: receptors (Bioprint panel) (Homo sapiens, UniProt Q9H3N8); experiment: biochemical; format: binding; conditions: read-out: Reference Compound IC50
receptors (Bioprint panel) (Homo sapiens, UniProt Q9H3N8), sequence (Q9H3N8 whole entry): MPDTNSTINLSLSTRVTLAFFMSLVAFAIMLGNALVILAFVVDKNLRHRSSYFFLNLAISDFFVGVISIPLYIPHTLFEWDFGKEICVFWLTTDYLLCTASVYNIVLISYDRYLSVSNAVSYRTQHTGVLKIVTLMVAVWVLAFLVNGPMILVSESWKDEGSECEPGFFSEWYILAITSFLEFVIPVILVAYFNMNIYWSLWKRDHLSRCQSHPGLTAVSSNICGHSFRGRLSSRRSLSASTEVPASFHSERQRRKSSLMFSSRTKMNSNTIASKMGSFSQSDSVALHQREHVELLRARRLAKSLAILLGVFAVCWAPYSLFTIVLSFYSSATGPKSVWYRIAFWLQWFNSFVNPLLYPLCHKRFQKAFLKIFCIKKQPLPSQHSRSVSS

[22] = target: T8, enzymes (Bioprint panel) (UniProt A0ABM2YAB8); experiment: biochemical; conditions: read-out: Reference Compound IC50
T8 construct: other: MT3 (ML2) (agonist radioligand); 10 μM
T8 sequence (A0ABM2YAB8 entry or part of it): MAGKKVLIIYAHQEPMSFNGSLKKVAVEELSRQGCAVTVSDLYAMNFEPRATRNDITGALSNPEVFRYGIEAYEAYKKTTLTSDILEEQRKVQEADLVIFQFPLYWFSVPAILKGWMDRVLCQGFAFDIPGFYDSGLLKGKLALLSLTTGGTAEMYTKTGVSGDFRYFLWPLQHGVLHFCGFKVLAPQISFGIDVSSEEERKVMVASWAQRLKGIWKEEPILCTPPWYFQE

[23] = target: receptors (Bioprint panel) (Homo sapiens, UniProt P14867); experiment: biochemical; format: binding
[24] = target: T9, enzymes (Bioprint panel); experiment: biochemical; conditions: read-out: Reference Compound IC50
T9 construct: other: ATPase (Na+/K+); 10 μM

[25] = target: receptors (Bioprint panel) (Homo sapiens, UniProt P41597); experiment: biochemical; format: binding; conditions: CHEMOKINES CCR2 (h) (agonist radioligand); read-out: Reference Compound IC50
receptors (Bioprint panel) (Homo sapiens, UniProt P41597), sequence (P41597 whole entry): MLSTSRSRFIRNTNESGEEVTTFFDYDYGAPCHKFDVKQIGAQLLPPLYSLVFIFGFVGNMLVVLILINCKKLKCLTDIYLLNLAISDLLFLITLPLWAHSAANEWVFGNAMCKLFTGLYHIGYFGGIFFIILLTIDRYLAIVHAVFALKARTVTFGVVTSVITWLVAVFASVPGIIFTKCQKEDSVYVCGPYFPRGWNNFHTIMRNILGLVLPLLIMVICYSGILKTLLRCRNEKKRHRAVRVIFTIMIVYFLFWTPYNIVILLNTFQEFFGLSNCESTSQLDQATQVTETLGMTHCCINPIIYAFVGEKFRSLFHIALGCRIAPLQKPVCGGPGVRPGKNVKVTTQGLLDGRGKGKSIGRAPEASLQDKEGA

receptors (Bioprint panel) (Homo sapiens, UniProt P28335), sequence (P28335 33-458): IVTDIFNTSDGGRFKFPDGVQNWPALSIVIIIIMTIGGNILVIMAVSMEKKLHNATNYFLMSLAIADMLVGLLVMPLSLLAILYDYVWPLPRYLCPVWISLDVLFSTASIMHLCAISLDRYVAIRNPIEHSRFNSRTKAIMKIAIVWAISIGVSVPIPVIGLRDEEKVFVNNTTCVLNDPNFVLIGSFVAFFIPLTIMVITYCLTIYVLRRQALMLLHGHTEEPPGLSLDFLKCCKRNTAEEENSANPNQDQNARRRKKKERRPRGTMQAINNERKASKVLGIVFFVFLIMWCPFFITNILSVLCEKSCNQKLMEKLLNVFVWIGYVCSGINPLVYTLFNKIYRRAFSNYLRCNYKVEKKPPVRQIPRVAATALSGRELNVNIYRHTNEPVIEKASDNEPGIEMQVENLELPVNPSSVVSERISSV

Compound: COc1cc(CC(C)N)c(OC)cc1I (racemic) [(±)DOI]
- IC50 [1]: 0.24 nM
- IC50 [2]: 6.7 nM

Compound: CCCCCC[C@@H]([C@@H](C)O)n1cnc2c(N)ncnc21 (racemic) [EHNA]
- IC50 [3]: 1200 nM

Compound: NC(=O)C1CCCc2c1[nH]c1ccc(Cl)cc21 (racemic) [EX-527, reference compound]
- IC50 [4]: 550000 nM
- IC50 [5]: 550000 nM

Compound: O=C(O)c1ccnc(C(=O)O)c1 [2,4 PDCA, reference compound]
- IC50 ([6]; read-out: IC50): 95 nM
- IC50 ([6]; read-out: Reference IC50): 140 nM
- IC50 [7]: 180 nM
- IC50 [8]: 610 nM
- IC50 [9]: 610 nM
- IC50 ([10]; read-out: IC50): 99 nM
- IC50 ([10]; read-out: Reference IC50): 180 nM
- IC50 [11]: 140 nM

Compound: CC(=N)NCc1cccc(CN)c1 [1400 W]
- IC50 [12]: 29 nM

Compound: CCCCCCCCCCCCCCCc1cccc(O)c1C(=O)O [Anacardic Acid, reference compound]
- IC50 [13]: 4700 nM
- IC50 [14]: 4700 nM

Compound: COc1ccccc1S(=O)(=O)Nc1ccc2c(c1)CN(C)C(=O)N2 [PFI-1, reference compound]
- IC50 [15]: 790 nM
- IC50 [16]: 790 nM

Compound: O=C(c1cc(O)c(O)c([N+](=O)[O-])c1)c1ccccc1F [Ro 41-0960]
- IC50 [17]: 61 nM

Compound: COc1cccc(OC)c1OCCNCC1COc2ccccc2O1 (stereo not drawn) [WB 4101]
- IC50 [18]: 0.27 nM

Compound: COC(=O)[C@H](c1ccccc1Cl)N1CCc2sccc2C1 [clopidogrel, reference compound]
- IC50 [19]: 390 nM

Compound: C[N+]1(C)CCOC(O)(c2ccc(-c3ccc(C4(O)C[N+](C)(C)CCO4)cc3)cc2)C1 (stereo not drawn) [hemicholinium-3]
- IC50 [20]: 4.6 nM

Compound: N=C(N)SCCc1cnc[nH]1 [imetit]
- IC50 [21]: 4.7 nM

Compound: COc1ccc2[nH]cc(CCNC(C)=O)c2c1 [melatonin]
- IC50 [22]: 160 nM

Compound: NCc1cc(=O)[nH]o1 [muscimol]
- IC50 [23]: 53 nM

Compound: C[C@@H]1O[C@@H](O[C@H]2C[C@@H](O)[C@]3(CO)[C@H]4[C@H](O)C[C@]5(C)[C@@H](C6=CC(=O)OC6)CC[C@]5(O)[C@@H]4CC[C@]3(O)C2)[C@H](O)[C@H](O)[C@H]1O [ouabain]
- IC50 [24]: 250 nM

Compound: MCP-1
- IC50 [25]: 0.087 nM
